In US8487001B2, “Medium-chain length fatty acids, glycerides and analogues as neutrophil survival and activation factors” (ProMetic BioSciences Inc., priority 2001, dated 2013):

Columns and labels:
bone marrow cells = test: In vivo chemoprotection: bone marrow cell count; conditions: for effect on bone marrow cell count, post-treatment: post-treatment per o.s. on day 1, 2, 3 and 4
Method: (§1) To examine the immunoprotective effect of MCT or other compounds, mice were pre-treated orally at day-3, -2 and -1 or treated intravenously at day 0 with the test compound. Mice were sacrificed at day +5 by cardiac puncture and cervical dislocation. Then, cell suspensions were prepared from thymus, spleen and bone marrow as follow.
(§2) Tissues were crushed in PBS buffer and contaminating erythrocytes were lysed in ACK buffer (155 mM NH4Cl, 12 mM NaHCO3, 0.1 mM EDTA, pH 7.3) for 5 minutes. Cells were then collected by centrifugation and washed three times in PBS and resuspended in tissue culture medium. Cells were counted on a hemacytometer.
(§3) Chemoprotection studies were performed as described in example 16 except that mice were (post)-treated with MCT, sodium caprylate, sodium caprate or capric acid per o.s. on day 1, 2, 3 and 4.

spleen cell subsets = test: Spleen immunophenotyping (flow cytometry of cell surface markers); assay type: in vivo, C57BL/6 mice; conditions: CY (200 mg/kg) immunosuppressed mice
Method: (§4) Female, 6- to 8-week old, C57BL/6 mice were pre-treated on day -3, -2 and -1 per o.s. or intravenously at day 0 with different concentrations of MCT. Immunophenotyping was also performed on immunosuppressed animals. […] Mice were sacrificed on day 5 by cardiac puncture. Blood and spleens were collected and cell suspensions prepared and erythrocytes lysed in ACK buffer (155 mM NH4Cl, 12 mM NaHCO3, 0.1 mM EDTA, pH 7.3) for 5 minutes. The cells were washed three times in PBS, pH 7.4 and resuspended in tissue culture medium. The cells were then incubated for 45 minutes on ice with fluorescein isothiocyanate (FITC) or phycoerythrin (PE) conjugated cell surface marker according to the manufacturer's (Gibco/BRL, Cedarlane, Boehringer Mannheim) recommendation. The cells were then washed in PBS, fixed with 1% paraformaldehyde and analyzed with a Coulter XL flow cytometer. Analysis of the cell subsets was undertaken by determination of standard cell surface markers which were as follows: TCR (T-cell receptor), CD4 (T helper), CD8 (T cytotoxic/suppressor), CD11b (macrophage), NK (NK cells) and Ly5 (B-cells). Bone marrow cells were obtained as described in example 15. Cells were stained by a 45 minutes incubation of FITC or PE conjugated cell surface marker according to the manufacturer's recommendation. The cells were then washed in PBS, fixed with 1% paraformaldehyde and analyzed with a Coulter XL flow cytometer. Analysis of the cell subsets was undertaken by determination of standard cell surface markers which were as follows: CD34 (hematopoietic progenitor cells), CD41 (platelets, megakaryocytes), CD13 (myelomonocytic stem cells, myelocytes, promonocytes) and CD38 (lymphoid stem cells, pro-B, pre-B).

spleen cells = test: In vivo chemoprotection: spleen cell count
Method: as §1, §2, §3

blood cell subsets = test: Blood immunophenotyping (flow cytometry of cell surface markers); assay type: in vivo, C57BL/6 mice; conditions: CY (200 mg/kg) immunosuppressed mice; for Blood Immunophenotyping: LY5−TCR− cell subset (relative percentage): Table 14
Method: as §4

bone marrow cell subsets = test: Bone marrow immunophenotyping (CD34, CD13, CD41, CD38); assay type: in vivo, C57BL/6 mice; conditions: for Bone marrow immunophenotyping: CY-treated mice, test substances compared to cyclophosphamide alone; for % Cells CD13+ (bone marrow) / % Cells CD34+ (bone marrow) / % Cells CD38+ (bone marrow) / % Cells CD41+ (bone marrow): Table 15, CY (200 mg/kg) immunosuppressed mice, CY + test substance (Cyclophosphamide line = CY alone)
Method: as §4
The effect of MCT, sodium caprylate, sodium caprate on bone marrow immunophenotyping was assessed by the protocol described in example 26.

[1] = CY-treated mice, protocol of example 16 (pre-treatment)
[2] = Table 8, CY-immunosuppressed mice, CY + test compound 6.25 μM (CY line = CY alone)
[3] = Table 17, CY-treated mice, CY + test compound (CY line = CY alone), protocol of example 16
[4] = Table 5, CY-treated mice, CY + test compound (CY line = CY alone), protocol of example 16
[5] = Table 11, CY + capric acid 3.125 μMole post-treatment per o.s. day 1, 2, 3 and 4
[6] = Table 11, CY + capric acid 6.25 μMole post-treatment per o.s. day 1, 2, 3 and 4
[7] = Table 11, CY + capric acid 12.5 μMole post-treatment per o.s. day 1, 2, 3 and 4
[8] = Table 7, CY-treated mice, CY + test compound 6.25 μMole pre-treatment (CY line = CY alone)
[9] = Table 9, CY-immunosuppressed mice, CY + test compound 6.25 μMole (CY line = CY alone)
[10] = Table 10, CY-treated mice, post-treatment per o.s. on day 1, 2, 3 and 4 with test substance 12.5 μM (CY line = CY alone)
[11] = Table 16, CY-treated mice, CY + test compound (CY line = CY alone), protocol of example 16
[12] = Table 6, CY-treated mice, CY + test compound (CY line = CY alone), protocol of example 16

CCCCCCCCCCCCCC(=O)OCC(COC(=O)CCCCCCCCCCCCC)OC(=O)CCCCCCCCCCCCC [trimyristin]
effect on bone marrow cell count compared to cyclophosphamide treated mice (bone marrow cells; [1]): weak (not significant) activity
Bone Marrow # Cells (×10^6) (bone marrow cells; [2]): 31 ± 9.9 ×10^6
Spleen Immunophenotyping: effect compared to cyclophosphamide alone (words) (spleen cell subsets): enhance the relative percentage of CD11+
Spleen Immunophenotyping: CD11+ cell subset (relative percentage) (spleen cell subsets; Table 14, compound 6.25 μM): 42.94 ± 8.45
effect on spleen cell count compared to cyclophosphamide treated mice (spleen cells; [1]): weak (not significant) activity
Spleen # Cells (×10^6) (spleen cells; [2]): 15 ± 4.6 ×10^6
Blood Immunophenotyping: effect compared to cyclophosphamide alone (words) (blood cell subsets): no significant effect compared to cyclophosphamide alone
Blood Immunophenotyping: effect compared to cyclophosphamide alone (words) (blood cell subsets; listed as Trimyristin): No significant effect

O=c1[nH]cc(F)c(=O)[nH]1 [5-FU, 5-fluorouracil, reference compound]
effect of cytotoxic drug on bone marrow cell count compared to the control (bone marrow cells; mouse, in vivo, iv): depressed the bone marrow cell count compared to the control
effect of cytotoxic drug on spleen cell count compared to the control (spleen cells; mouse, in vivo, iv): reduce significantly the spleen cell count compared to the control

CCCCCCCCCC(=O)OC1C(C)OC(OC)C(OC(=O)CCCCCCCCC)C1OC(=O)CCCCCCCCC [β-methyl tridecanoyl-L-fucopyranose, β-O-Methyl-2,3,4,—O,O,O-tridecanoyl-L-fucopyranose]
Bone Marrow # Cells (×10^6) (bone marrow cells; [3]): 34.6 ± 8.5 ×10^6
effect on bone marrow cell count compared to cyclophosphamide treated mice (bone marrow cells; mouse, in vivo): weak (not significant) activity on bone marrow cell counts

CCCCCCCCCC(=O)OC1C(C)OC(OC)C(OC(=O)CCCCCCCCC)C1OC(=O)CCCCCCCCC [α-methyl tridecanoyl-L-fucopyranose, α-O-Methyl-2,3,4,—O,O,O-tridecanoyl-L-fucopyranose]
Bone Marrow # Cells (×10^6) (bone marrow cells; [3]): 30.4 ± 9.3 ×10^6
effect on bone marrow cell count compared to cyclophosphamide treated mice (bone marrow cells; mouse, in vivo): lack of activity

CCCCCCCCCC(=O)O [capric acid]
effect on bone marrow cell count, post-treatment (bone marrow cells; CY-treated mice): weak increase in bone marrow cell count
effect on bone marrow cell count compared to cyclophosphamide treated mice (bone marrow cells; [1]): significantly enhances the bone marrow cell counts
Bone Marrow # Cells (×10^6) (bone marrow cells; [4]): 32 ± 2.71 ×10^6
Bone Marrow # Cells (×10^6) (bone marrow cells; [5]): 37 ± 7.8 ×10^6
Bone Marrow # Cells (×10^6) (bone marrow cells; [6]): 38 ± 4.6 ×10^6
Bone Marrow # Cells (×10^6) (bone marrow cells; [7]): 38 ± 7.4 ×10^6
Spleen Immunophenotyping: effect compared to cyclophosphamide alone (words) (spleen cell subsets): no significant effect compared to cyclophosphamide alone
Spleen Immunophenotyping: effect compared to cyclophosphamide alone (words) (spleen cell subsets; listed as Capric acid): No significant effect
effect on spleen cell count, post-treatment (spleen cells; CY-treated mice, post-treatment per o.s. on day 1, 2, 3 and 4): significant increase in spleen cell count
effect on spleen cell count compared to cyclophosphamide treated mice (spleen cells; [1]): No significant effect
Spleen # Cells (×10^6) (spleen cells; [4]): 27 ± 8.4 ×10^6
Spleen # Cells (×10^6) (spleen cells; [5]): 31 ± 8.7 ×10^6
Spleen # Cells (×10^6) (spleen cells; [6]): 25 ± 6.3 ×10^6
Spleen # Cells (×10^6) (spleen cells; [7]): 36 ± 7.8 ×10^6
Blood Immunophenotyping: effect compared to cyclophosphamide alone (words) (blood cell subsets): significantly increase the relative percentage of LY5-TCR- on blood
Blood Immunophenotyping: LY5−TCR− cell subset (relative percentage) (blood cell subsets; compound 6.25 μM): 61.52 ± 5.16
Blood Immunophenotyping: LY5−TCR− cell subset (relative percentage) (blood cell subsets; compound 12.5 μM): 70.79 ± 3.95

CCCCCCCCC(=O)O [nonanoic acid]
effect on bone marrow cell count compared to cyclophosphamide treated mice (bone marrow cells; [1]): weak (not significant) activity on immune cell counts
Bone Marrow # Cells (×10^6) (bone marrow cells; [8]): 36 ± 5.6 ×10^6
effect on spleen cell count compared to cyclophosphamide treated mice (spleen cells; [1]): weak (not significant) activity on immune cell counts
Spleen # Cells (×10^6) (spleen cells; [8]): 28 ± 4 ×10^6

CCCCCC(=O)OCC(COC(=O)CCCCC)OC(=O)CCCCC [tricaproin]
effect on bone marrow cell count compared to cyclophosphamide treated mice (bone marrow cells; [1]): weak (not significant) activity
Bone Marrow # Cells (×10^6) (bone marrow cells; [9]): 29 ± 4.1 ×10^6
effect on spleen cell count compared to cyclophosphamide treated mice (spleen cells; [1]): weak (not significant) activity
Spleen # Cells (×10^6) (spleen cells; [9]): 37 ± 8.7 ×10^6

CCCCCCCC(=O)O [caprylic acid]
Bone Marrow # Cells (×10^6) (bone marrow cells; [4]): 26 ± 3.58 ×10^6
effect on spleen cell count compared to cyclophosphamide treated mice (spleen cells; [1]): No significant effect
Spleen # Cells (×10^6) (spleen cells; [4]): 28 ± 6.4 ×10^6

CCCCCCCC(=O)[O-].[Na+] [sodium caprylate]
effect on bone marrow cell count, post-treatment (bone marrow cells; CY-treated mice): significant increase in bone marrow cell count
effect on bone marrow cell count compared to cyclophosphamide treated mice (bone marrow cells; [1]): significant increase in proliferation or protection of bone marrow cell count
Bone Marrow # Cells (×10^6) (bone marrow cells; [10]): 26 ± 5.33 ×10^6
Spleen # Cells (×10^6) (spleen cells; [10]): 36 ± 12.5 ×10^6
Bone marrow immunophenotyping (bone marrow cell subsets): amplifies the number of CD13+ lineage
% Cells CD13+ (bone marrow) (bone marrow cell subsets): 4.9 ± 1.2%
% Cells CD34+ (bone marrow) (bone marrow cell subsets): 11.2 ± 1.3%
% Cells CD38+ (bone marrow) (bone marrow cell subsets): 36 ± 9.7%
% Cells CD41+ (bone marrow) (bone marrow cell subsets): 4.6 ± 1.3%

CCCCCC(=O)[O-].[Na+] [sodium caproate]
Bone Marrow # Cells (×10^6) (bone marrow cells; [9]): 39 ± 17.9 ×10^6
effect on bone marrow cell count compared to cyclophosphamide treated mice (bone marrow cells; mouse, in vivo): weak (not significant) activity
Spleen # Cells (×10^6) (spleen cells; [9]): 35 ± 10.6 ×10^6
effect on spleen cell count compared to cyclophosphamide treated mice (spleen cells; mouse, in vivo): weak (not significant) activity
Blood Immunophenotyping: effect compared to cyclophosphamide alone (words) (blood cell subsets): significantly increase the relative percentage of LY5-TCR- on blood
Blood Immunophenotyping: LY5−TCR− cell subset (relative percentage) (blood cell subsets; compound 6.25 μM): 52.43 ± 10.16

CCCCCCCCCC(=O)[O-].[Na+] [sodium caprate]
effect on bone marrow cell count, post-treatment (bone marrow cells; CY-treated mice): significant increase in bone marrow cell count
effect on bone marrow cell count compared to cyclophosphamide treated mice (bone marrow cells; [1]): significant increase in proliferation or protection of bone marrow cell count
Bone Marrow # Cells (×10^6) (bone marrow cells; [10]): 29 ± 4.45 ×10^6
Spleen # Cells (×10^6) (spleen cells; [10]): 28 ± 6.3 ×10^6
Bone marrow immunophenotyping (bone marrow cell subsets): amplifies the number of CD13+ lineage
% Cells CD13+ (bone marrow) (bone marrow cell subsets): 4.7 ± 1.7%
% Cells CD34+ (bone marrow) (bone marrow cell subsets): 9.1 ± 3.1%
% Cells CD38+ (bone marrow) (bone marrow cell subsets): 44.3 ± 22.8%
% Cells CD41+ (bone marrow) (bone marrow cell subsets): 3.7 ± 0.7%

CCCCCCCCCC(=O)NC(COC(=O)CCCCCCCCC)COC(=O)CCCCCCCCC [tridecanoyl serinol, 1,2,3-O,N,O-Tridecanoyl serinol]
effect on bone marrow cell count compared to cyclophosphamide treated mice (bone marrow cells; [1]): No significant effect
Bone Marrow # Cells (×10^6) (bone marrow cells; [11]): 28 ± 4.6 ×10^6
effect on spleen cell count compared to cyclophosphamide treated mice (spleen cells; [1]): significantly enhances the spleen cell counts
Spleen # Cells (×10^6) (spleen cells; [11]): 42 ± 8.4 ×10^6

CCCCCCCCCC(=O)OCC [ethyl caprate]
Bone Marrow # Cells (×10^6) (bone marrow cells; Table 18, CY-treated mice, CY + test compound (CY line = CY alone), protocol of example 16): 27.5 ± 4.4 ×10^6

CCCCCCCCCC(=O)OCC(COC(=O)CCCCCCCCC)OC(=O)CCCCCCCCC [tricaprin]
effect on bone marrow cell count compared to cyclophosphamide treated mice (bone marrow cells; [1]): efficacious in the proliferation or protection of bone marrow cell counts
Bone Marrow # Cells (×10^6) (bone marrow cells; [12]): 31 ± 3.8 ×10^6
effect on spleen cell count compared to cyclophosphamide treated mice (spleen cells; [1]): No significant effect
Spleen # Cells (×10^6) (spleen cells; [12]): 38 ± 6.8 ×10^6

CCCCCCCCCCCC(=O)O [lauric acid]
effect on bone marrow cell count compared to cyclophosphamide treated mice (bone marrow cells; [1]): Significant increases in proliferation or protection of bone marrow and spleen cell counts
Bone Marrow # Cells (×10^6) (bone marrow cells; [8]): 42 ± 7.8 ×10^6
effect on spleen cell count compared to cyclophosphamide treated mice (spleen cells; [1]): Significant increases in proliferation or protection of bone marrow and spleen cell counts
Spleen # Cells (×10^6) (spleen cells; [8]): 32 ± 5 ×10^6
